The values that follow come from US6645495B1, “Compositions of saponin adjuvants and excipients” (Antigenics, Inc., priority 1997, dated 2003).

For data set [1] the following is noted: in words; cited from earlier work.
Another data set deals with sheep red blood cells. The following applies: cited from earlier work; for concentration causing hemolysis of sheep red blood cells: substantially pure saponin.
The conditions of data set [2]: cited from earlier work.
Data set [3] can be described thus: aqueous shelf life of QS-21 solution at 4° C. (t90). In kind it is physicochemical. The protocol:
Product stability is another concern for QS-21 containing compositions. The shelf life of a vaccine product is typically defined by the extent of time to reach a defined and acceptable low level of degradation (such as, the time to 10% degradation, also known as t90). Most commercial vaccine products have a shelf life of at least 18 to 24 months when stored in the refrigerator at 4° C. Adjuvants, which are essential components of vaccines, therefore must also have equally long shelf lives. However, the shelf life of a 50 μg/ml solution of QS-21 at pH 7.0 at 4° C. is reached in about 3 months. The reason for the short shelf life is because the ester bond of QS-21 is increasingly labile at increasing pH and because monomers of QS-21, as opposed to micelles, are subject to hydrolysis. The need to stabilize compositions of QS-21 adjuvant is significant.
This is representative of a typical clinical vaccine formulation containing QS-21 adjuvant (which consists of QS-21 at a concentration of 50-200 μg/ml in a-physiological pH buffer (pH 7.0-7.5)). […] Some improvement in stability, however, can be achieved by an increased concentration of the QS-21 product. […] But a concentrated QS-21 solution is not necessarily a practical method of administering a low dose of adjuvant. For example, administration of 25 μg from a 500 μg/ml solution would require the syringe withdrawal of 0.05 ml of dose. Additionally, some improved stability can be achieved by the use of a lower pH, i.e., at pH 6.0. However, a pH substantially lower than the physiological pH range may not be tolerated well or be compatible with the antigen.

The subject of the next data set is C57BL/6 mice. Conditions: antigen ovalbumin, cited from earlier work.
Data set [4] concerns New Zealand white rabbits. Conditions: cited from earlier work.
In another data set the test system is Balb/c mice. As to the kind of experiment: adjuvant potency: anti-OVA IgG2a response of immunized Balb/c mice (EIA). In kind it is in vivo. The procedure: FIGS. 1A and 1B show the effect of Polysorbate 40, Polysorbate 60, Polysorbate 80, and methyl-β-cyclodextrin on the immune response of Balb/c mice to OVA plus various doses of QS-21. Female mice (10/group, 8-10 weeks of age at the first immunization) were immunized subcutaneously with 5 μg of OVA and the indicated dose of QS-21 in either PBS alone or in 2 mg/ml excipient in PBS. A booster immunization was given by the same route at week 2. Sera was collected at week 4 for EIA analysis of the anti-OVA response. Mice were analyzed for OVA-specific IgG2a by a standard EIA analysis.

Data set [5] can be described thus: earlier clinical trials: pain after injection of QS-21 in simple buffer. The following applies: QS-21 in saline or PBS, some individuals. It is filed as in vivo, humans. An excerpt:
This pain, described by most individuals as a burning pain, may be a secondary reaction correlated with the lytic effect of the QS-21 adjuvant. Patient pain is likewise an objectionable property for a composition.

With QS-17, the immune adjuvant activity entry in data set [1] is reported as “having immune adjuvant activity”. In addition, the “concentration causing hemolysis of sheep red blood cells” value (shortened to “concentration causing hemolysis”) in the data set with sheep red blood cells was no less than 25000 ng/mL. Moreover, in data set [2], the “critical micellar concentration in phosphate buffered saline” value was ~0.03 % (w/v) and the “critical micellar concentration in water” value was “approximately 0.06 % (w/v)”.
In the case of QS-21, the “t90 (shelf life, time to 10% degradation)” value was 679 days in data set [3] (50 μg/ml QS-21, pH 6.0); 94 days in data set [3] (50 μg/ml QS-21, pH 7.0, 4° C.); 717 days in data set [3] (500 μg/ml QS-21, pH 7.0, 4° C.). In data set [3] (500 μg/ml QS-21, pH 7.0, 4° C.), this substance showed a shelf life of 23.9 months. The “threshold dose for antibody” value in the data set on C57BL/6 mice (in PBS (Kensil 1993)) is 2.5 µg. Further, in the data set on C57BL/6 mice (in PBS (Newman 1992)), the “threshold dose for CTL” value is 2.5 µg. In data set [1], the immune adjuvant activity result was “having immune adjuvant activity”. Besides, the “creatine kinase (marker for muscle damage)” value in data set [4] (after injection with QS-21 in saline or PBS) was “increased”. Further, in data set [4] (intramuscular QS-21/saline solutions, some animals (Kensil 1995)), the injection site histopathology entry is recorded as “mild to moderate fibroblast damage or necrosis”. In the data set with sheep red blood cells (simple buffer such as saline or PBS (Kensil 1991)), the “concentration at which hemolysis occurs” value was 5000 to 7000 ng/mL. Moreover, in the data set with sheep red blood cells, the “concentration causing hemolysis” value is no less than 25000 ng/mL. Moreover, the “adjuvant activity (threshold dose) relative to PBS” value in the data set with Balb/c mice (5 μg OVA s.c., boost week 2, sera week 4, 2 mg/ml Polysorbate 40, 60, 80 or methyl-β-cyclodextrin in PBS) is on record as “active in all excipients within two fold of the threshold value determined in PBS”. In the data set with Balb/c mice (QS-21 dose, OVA-specific IgG2a, Balb/c mice), the optimum adjuvant dose is no less than 10 µg. In addition, the “maximum level of antibody response” value in the data set on Balb/c mice (at optimum adjuvant dose, excipients versus PBS) is listed as “same maximum level of antibody response was reached”. Besides, the pain after injection result in data set [5] is reported as “immediate, transient pain”. Also, the critical micellar concentration result in data set [2] (in PBS (Soltysik 1995)) is “approximately 50 μg/ml”. Also, in data set [2], the “critical micellar concentration in phosphate buffered saline” value is ~0.02 % (w/v). The “critical micellar concentration in water” value in data set [2] was “approximately 0.03 % (w/v)”.
As to QS-18, in data set [1], the immune adjuvant activity result is given as “having immune adjuvant activity”. In addition, the “concentration causing hemolysis” value in the data set on sheep red blood cells is no less than 25000 ng/mL. Besides, in data set [2], the “critical micellar concentration in phosphate buffered saline” value was ~0.02 % (w/v) and the “critical micellar concentration in water” value is reported as “approximately 0.04 % (w/v)”.
